Reference: publication PMC7773843 (Frontiers in Pharmacology, 2020)

What was measured:
[1] = system: HL-7702; experiment: cells; parameters: anti-proliferative / cytotoxicity assay on cell lines, IC50; conditions: Homo sapiens, L02, read-out: IC50 (µM) HL-7702
Excerpt: (§1) As shown in SPR and ITC data, the binding affinity of OC to Cath B was weaker than that of OC to HSPA8, justifying our selection of HSPA8 for further studies. To evaluate whether OC potentially binds to HSPA8 in cell lysates, we synthesized OC_biotin ([Wang et al., 2016]; Supplementary Figure S8) and performed a pulldown assay using avidin beads. We first examined whether OC_biotin has the same binding affinity with that of OC to HSPA8 using SPR and ITC assays. […] We then examined the anticancer activities of OC_biotin and OC in several cancer cell lines. As shown in Supplementary Table S4, OC_biotin exerted similar anti-proliferative activity to that of OC in multiple cancer cell lines, with IC50 ranging from 5 to 20 µM. […] By using HeLa cells that stably expressed GFP-LC3, we measured the GFP-LC3 puncta increment upon OC, OC_biotin and Hydroxychloroquine (HCQ) treatment. […] Avidin beads were used to perform the OC_biotin immunoprecipitation assay with cell lysates. Consistent with the SPR and ITC assays, we pulled down HSPA8 using cell lysates.

[2] = system: PANC-1; experiment: cells; parameters: anti-proliferative / cytotoxicity assay on cell lines, IC50; conditions: Homo sapiens, PANC-1, read-out: IC50 (µM)
Excerpt: as §1

[3] = system: MDA-MB-231; experiment: cells; parameters: anti-proliferative / cytotoxicity assay on cell lines, IC50; conditions: Homo sapiens, MDA-MB-231, read-out: IC50 (µM)
Excerpt: as §1

[4] = system: A549; experiment: cells; parameters: anti-proliferative / cytotoxicity assay on cell lines, IC50; conditions: Homo sapiens, A549, read-out: IC50 (µM)
Excerpt: as §1

[5] = system: PC-3; experiment: cells; parameters: anti-proliferative / cytotoxicity assay on cell lines, IC50; conditions: Homo sapiens, PC-3, read-out: IC50 (µM)
Excerpt: as §1

[6] = system: Hela; experiment: cells; parameters: anti-proliferative / cytotoxicity assay on cell lines, IC50; conditions: Homo sapiens, HeLa, read-out: IC50 (µM)
Excerpt: as §1

[7] = system: HCT116-DKO; experiment: cells; parameters: anti-proliferative / cytotoxicity assay on cell lines, IC50; conditions: read-out: IC50 (µM)
Excerpt: as §1

[8] = molecular target: T1, heat shock 70 kDa protein 8 (HSPA8) (Homo sapiens, UniProt P11142); experiment: ITC (KD […]); SPR KD […] ([…] also printed); thermal shift lowers Tm by ~[…]°C; assay type: binding
T1 construct: Full-length HSPA8, his-tagged, expressed in E. coli
T1 sequence (P11142 whole entry): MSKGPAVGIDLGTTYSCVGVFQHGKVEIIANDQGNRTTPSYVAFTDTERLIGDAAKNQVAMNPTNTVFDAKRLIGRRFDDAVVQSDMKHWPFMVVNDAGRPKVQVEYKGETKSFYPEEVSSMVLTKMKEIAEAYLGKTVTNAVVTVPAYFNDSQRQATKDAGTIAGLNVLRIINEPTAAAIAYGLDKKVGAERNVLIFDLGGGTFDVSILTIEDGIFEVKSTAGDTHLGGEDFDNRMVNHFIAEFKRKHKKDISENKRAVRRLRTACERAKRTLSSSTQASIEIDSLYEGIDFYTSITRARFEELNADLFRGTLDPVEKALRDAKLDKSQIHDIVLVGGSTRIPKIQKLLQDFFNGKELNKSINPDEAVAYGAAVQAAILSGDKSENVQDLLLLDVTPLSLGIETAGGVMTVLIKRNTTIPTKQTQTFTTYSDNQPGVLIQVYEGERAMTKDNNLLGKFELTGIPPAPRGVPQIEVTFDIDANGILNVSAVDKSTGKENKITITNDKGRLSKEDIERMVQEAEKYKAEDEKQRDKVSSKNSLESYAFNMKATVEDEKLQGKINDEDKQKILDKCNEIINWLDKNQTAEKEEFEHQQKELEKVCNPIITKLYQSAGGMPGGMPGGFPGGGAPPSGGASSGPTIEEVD

[9] = molecular target: T2, cathepsin B (Cath B) (Homo sapiens, UniProt P07858); experiment: ITC (KD […]); SPR KD […]; protease activity IC50 […]; assay type: binding
T2 construct: gene CTSB

Compound COc1cc([C@@H]2c3cc4c(cc3[C@@H](O[C@@H]3O[C@@H]5CO[C@@H](C)O[C@H]5[C@H](O)[C@H]3O)[C@H]3COC(=O)[C@H]23)OCO4)cc(OC)c1O [Etoposide] has an IC50 [1] of 1.42 ± 0.2 µM and an IC50 [2] of 22.7 ± 1.7 µM.
CC(C)=CCC/C(C)=C/C[C@@H]1C[C@]2(CC=C(C)C)C(=O)[C@@](CC=C(C)C)(C(=O)C(C(=O)c3ccc(O)c(O)c3)=C2O)[C@@]1(C)CCC=C(C)C [OC, Oblongifolin C] was tested, and the IC50 [3] was 15.9 ± 1.1 µM, the IC50 [4] was 7.49 ± 0.9 µM and the IC50 [1] was 5.16 ± 0.4 µM. The IC50 [5] was 10.7 ± 0.6 µM, the IC50 [6] was 11 ± 1.2 µM and the IC50 [7] was 12.2 ± 0.9 µM. The IC50 [2] was 17.5 ± 0.9 µM, the Kd [8] was 6.2 µM and the Kd [9] was 25.6 µM.
